Series [1] concerns the target GPI (μ) (Cavia porcellus, UniProt P97266). The note with it: read-out: GPI (μ) opioid agonist IC50; ref 3a; cited from earlier work.
Series [2] addresses human NK1 receptors (Homo sapiens, UniProt P25103). The note with it: ratio; ref 3a; cited from earlier work.
Series [3] concerns the target rat NK1 receptors (Rattus norvegicus, UniProt P14600). As to conditions: read-out: rNK1 Ki; [3H]Substance P; ref 3a; cited from earlier work.
Series [4] concerns rodent model. As to conditions: ref 2a, cited from earlier work.
Series [5] concerns the target MVD (δ) (Mus musculus, UniProt P32300). As to conditions: read-out: MVD (δ) opioid agonist IC50; ref 3a; cited from earlier work.
In series [6] the target is T1, GPI, Substance P induced muscle contraction (Cavia porcellus, UniProt P30547). As to conditions: 1 μM naloxone; ref 3a; cited from earlier work.
The target in series [7] is T1, GPI, Substance P induced muscle contraction. Kind of series: GPI assay, Substance P antagonist. Type of series: cell-based. The note with it: in the presence of 1 μM naloxone, n = 4.

What is called pIC50 is −log10 of the IC50, conventionally taken in molar units. As a reminder, the pKi is the negative decadic logarithm of the Ki, by convention in mol/L.

pIC50, pKi: −log10 of the molar value. Read-outs that look alike come from different tables or passages of the source.

T1 sequence (P30547 whole entry): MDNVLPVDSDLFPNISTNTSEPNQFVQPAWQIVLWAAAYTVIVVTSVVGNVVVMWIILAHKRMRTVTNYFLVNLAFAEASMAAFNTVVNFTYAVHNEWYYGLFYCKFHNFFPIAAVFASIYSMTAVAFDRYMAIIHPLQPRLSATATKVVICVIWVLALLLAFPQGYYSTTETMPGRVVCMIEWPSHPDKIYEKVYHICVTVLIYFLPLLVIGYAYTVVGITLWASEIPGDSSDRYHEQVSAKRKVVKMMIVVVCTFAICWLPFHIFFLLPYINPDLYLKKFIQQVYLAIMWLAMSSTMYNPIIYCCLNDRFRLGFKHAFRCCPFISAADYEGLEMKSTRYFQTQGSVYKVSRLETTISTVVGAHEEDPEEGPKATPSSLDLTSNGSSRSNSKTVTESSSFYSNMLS
human NK1 receptors, sequence (P25103 whole entry): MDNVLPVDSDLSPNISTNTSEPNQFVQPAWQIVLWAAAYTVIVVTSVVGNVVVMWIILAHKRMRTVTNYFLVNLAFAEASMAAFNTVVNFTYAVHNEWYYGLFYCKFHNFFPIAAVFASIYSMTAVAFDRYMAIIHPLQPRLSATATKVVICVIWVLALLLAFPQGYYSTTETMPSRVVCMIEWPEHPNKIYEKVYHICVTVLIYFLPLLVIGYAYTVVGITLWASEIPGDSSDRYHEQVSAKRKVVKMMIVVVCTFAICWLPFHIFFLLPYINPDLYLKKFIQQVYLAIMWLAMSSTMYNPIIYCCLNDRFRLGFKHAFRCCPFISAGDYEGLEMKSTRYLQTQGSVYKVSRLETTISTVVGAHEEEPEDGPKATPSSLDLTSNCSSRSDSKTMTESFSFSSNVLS
rat NK1 receptors, sequence (P14600 whole entry): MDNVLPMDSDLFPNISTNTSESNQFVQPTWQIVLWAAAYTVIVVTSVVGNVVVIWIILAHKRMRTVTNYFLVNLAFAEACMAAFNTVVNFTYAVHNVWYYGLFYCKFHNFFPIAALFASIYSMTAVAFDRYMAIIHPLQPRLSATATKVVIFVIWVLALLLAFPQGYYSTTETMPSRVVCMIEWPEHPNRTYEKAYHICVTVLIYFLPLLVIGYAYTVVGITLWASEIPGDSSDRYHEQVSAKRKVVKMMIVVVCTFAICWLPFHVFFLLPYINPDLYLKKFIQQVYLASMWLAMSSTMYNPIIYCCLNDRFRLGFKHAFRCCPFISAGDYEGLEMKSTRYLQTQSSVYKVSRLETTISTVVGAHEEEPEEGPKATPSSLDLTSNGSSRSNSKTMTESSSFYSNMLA
MVD (δ), sequence (P32300 whole entry): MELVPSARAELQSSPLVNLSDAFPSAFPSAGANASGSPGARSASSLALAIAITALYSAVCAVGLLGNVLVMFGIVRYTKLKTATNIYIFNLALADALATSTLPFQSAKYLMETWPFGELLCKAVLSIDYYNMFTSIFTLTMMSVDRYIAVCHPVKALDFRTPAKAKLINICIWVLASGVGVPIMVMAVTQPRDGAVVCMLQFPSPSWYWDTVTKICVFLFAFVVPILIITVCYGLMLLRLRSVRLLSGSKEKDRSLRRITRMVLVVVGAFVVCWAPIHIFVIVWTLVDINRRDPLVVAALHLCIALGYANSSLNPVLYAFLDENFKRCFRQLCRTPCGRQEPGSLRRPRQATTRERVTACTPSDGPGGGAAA

Take “Tyr^1-DAla^2-Gly^3-Phe^4-Met^5-Pro^6-Leu^7-Trp^8-O-[3′,5′-Bzl(CF3)2] [compound 1]”: in series [1], the pIC50 was 6.44. Further, the “Ki(hNK1)/Ki(rNK1)” value in series [2] is on record as 3.5. Also, the pKi in series [3] is 9.54. In series [4], the opioid-induced tolerance entry is given as “no sign of opioid-induce tolerance” and the reward liability entry is listed as “no development of reward liability”. The “effect on neuropathic pain” value in series [4] (rodent model) is given as “reverse neuropathic pain”. In addition, the pIC50 in series [5] was 7.66. In addition, the “GPI Substance P antagonist Ke” value in series [6] is 25 nM.

`CC(=O)N[C@@H](Cc1c[nH]c2ccccc12)C(=O)OCc1cc(C(F)(F)F)cc(C(F)(F)F)c1` [L-732,138]: in series [7], the “GPI Substance P antagonist Ke” value came out at 250 nM.

The values are drawn from publication PMC3810412 (Bioorganic & medicinal chemistry letters, 2013).
